From patent publication EP0316592A2, “3'-Fluoro-2',3'-dideoxyuridine, and its therapeutic application” (Stichting REGA V.Z.W., priority 1987, dated 1989)
Like-named read-outs stand apart in the source and are kept apart here.

Tests used:
[1] = molecular target: T1, bacterial thymidine phosphorylase (Escherichia coli, UniProt P07650); assay: Phosphorolytic cleavage by dThd phosphorylase; type: biochemical; details: for susceptibility to phosphorolysis by dThd phosphorylase (in words): purified bacterial dThd phosphorylase; for Initial velocity of phosphorolysis: 25°C, 0.1 M sodium phosphate buffer, pH 7.0, N.D. = not detectable with 25 units of enzyme
T1 construct: purchased Sigma Chemical Co., St. Louis, MO
T1 sequence (P07650 whole entry): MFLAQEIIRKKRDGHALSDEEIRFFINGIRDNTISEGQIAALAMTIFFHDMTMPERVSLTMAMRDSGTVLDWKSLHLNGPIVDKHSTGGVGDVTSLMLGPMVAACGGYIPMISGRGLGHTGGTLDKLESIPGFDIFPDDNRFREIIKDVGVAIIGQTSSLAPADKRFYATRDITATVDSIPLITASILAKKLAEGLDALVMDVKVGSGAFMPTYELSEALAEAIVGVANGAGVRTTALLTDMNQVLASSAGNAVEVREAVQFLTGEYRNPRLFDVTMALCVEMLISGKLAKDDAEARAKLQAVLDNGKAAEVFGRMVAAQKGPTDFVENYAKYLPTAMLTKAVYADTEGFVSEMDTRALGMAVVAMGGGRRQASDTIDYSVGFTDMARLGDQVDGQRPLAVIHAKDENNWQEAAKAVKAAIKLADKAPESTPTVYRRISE
Experimental: Phosphorolytic cleavage of the test compounds was assessed using purified bacterial dThd phosphorylase (Sigma Chemical Co., St. Louis, MO) with the aid of a Beckman spectrophotometer UV/Vis 5200; the absorbance change during the enzyme reaction was continuously monitored at 25°C at the wavelength where the difference of absorption between the nucleoside and its free base was maximal. The reaction mixtures for all the assays consisted of enzyme and non-satura ting concentrations of nucleoside in 0.1 M sodium phosphate buffer, pH 7.0. The initial velocity of phosphorolysis was expressed as nmol/min/enzyme unit.

[2] = tested on: MT4 cells; assay: Cytotoxicity for non-infected MT4 cells (viable cell count)
Experimental: Then 100 µl of the infected cell suspension was added to 100 µl of an appropriate dilution of test compound in 200 µ1 wells of a Flat Bottom Microtest III Plate (Falcon, Becton Dickinson, Oxnard, CA, USA) (i.e. 40 CCID₅₀ HIV/200 µ1 well/5 x 10⁴ cells), and further incubated at 37°C in a CO₂-controlled humidified atmosphere.

[3] = tested on: MOLT/4F CELL DNA; assay: Incorporation of radiolabelled precursors into Molt/4F cell DNA; type: cell-based, human; details: for IC50: Homo sapiens, Molt/4F cell DNA, 20-24 hours; for stimulatory effect on (5-3H)dCyd incorporation into DNA: as compared to the control
Experimental: The impact of ddUrd and the 3′-fluoro- and 3′-azido-substituted pyrimidine 2′,3′-dideoxynucleoside analogues on cellular DNA biosynthesis was evaluated by monitoring the effect of these compounds on the incorporation of radio- labelled (1′,2′-³H)dUrd (specific radioactivity 27 Ci/mmol), (methyl-³H)dThd (specific radioactivity […]) and (5-³H)dCyd (specific radioactivity 20 Ci/mmol) into DNA of Molt/4F cells.
The incorporation of radiolabelled precursors into Molt/4F cellular DNA was measured in microtest III plates (96 wells) (Flacon) as previously described (J. Balzarini et al, Mol. Pharmacol. 23, 175-181 (1983)). Shortly, to each well of the microplate were added 10⁵ Molt/4F cells and 0.25 µCi of (1′,2′-³H)dUrd, (methyl³H)dThd or (5-³H)dCyd. The cells were allowed to proliferate for 20-24 hours at 37°C in a humidified CO₂-controlled atmosphere. At the end of this incubation period, the contents of the wells (200 µ1) were brought onto 25-mm glass-fibre filters (type A/E, Gelman Instrument Company, Ann Arbor, Mich., USA) and washed twice with cold phosphate-buffered saline, twice with cold 10% trichloroacetic acid (TCA), twice with cold 5% TCA, once with ethanol and once with ether. The filters were then assayed for radioactivity in a toluene-based scintillant.

[4] = molecular target: T2, Molt/4F dCyd kinase (Homo sapiens, UniProt P27707); assay: Inhibition of dCyd kinase (Lineweaver-Burk); type: biochemical; details: for Type of inhibition: with respect to dCyd
T2 construct: endogenous in cells; host or cells: Molt/4F cells (sonicated extract, 30-70% ammonium sulfate fraction, dialyzed)
T2 sequence (P27707 whole entry): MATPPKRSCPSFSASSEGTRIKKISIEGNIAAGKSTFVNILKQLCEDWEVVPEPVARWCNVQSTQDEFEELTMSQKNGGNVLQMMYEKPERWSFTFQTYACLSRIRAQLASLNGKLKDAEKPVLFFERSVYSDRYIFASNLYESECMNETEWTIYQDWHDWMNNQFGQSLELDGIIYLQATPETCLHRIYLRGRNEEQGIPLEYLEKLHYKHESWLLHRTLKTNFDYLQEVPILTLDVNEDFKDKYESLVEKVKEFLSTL
Experimental: ddUrd and the 3′-fluoro- and 3′-azido-substituted pyrimidine 2′,3′-dideoxynucleoside analogues were evaluated for their inhibitory effect against dThd and dCyd kinase.
dThd kinase and dCyd kinase were prepared from exponen tially growing Molt/4F cells, which were first washed (2x) with phosphate-buffered saline at 4° and then homogenized by sonication. The suspensions were clarified by centrifugation at 25,000-27,000 x g for 30 min. The 30-70% (NH₄)₂SO₄ precipitate of the supernatant was resuspended in buffer containing 10 uM potassium phosphate, pH 7.5, 10 mM β-mercaptoethanol and 0.1 M KCl, dialyzed against the same buffer, and used for the dThd kinase and the dCyd kinase assays. In these experiments, (2-¹⁴C)dThd and (U-¹⁴C)dCyd served as the radiolabelled substrates. The apparent Km and Ki values were derived from Lineweaver-Burk plots, using a linear regression analysis program. The assay procedures have been described in detail (J. Balzarini et al, (1983) and J. Balzarini et al, Biochem. Pharmacol. 31, 3673-3682 (1982)).

[5] = tested on: human B- and T-cell lines; assay: Cytostatic effect, pooled over several cell lines; type: cell-based; details: for IC50: read-out: ID50 (the source's name)
Experimental: All assays were performed in flat bottom Microtest III Plates (96 wells) (Falcon) as previously described by E. De […] et al (Mol. Pharmacol. 19, 321-330 (1981)). Briefly, the cells were suspended in growth medium and added to the microplate wells at a density of 7.5 x 10^4 cells/well (200 μ1) in the presence of varying concentrations of the test compounds. The cells were then allowed to proliferate for 68-72 hours at 37°C in a humidified, CO2-controlled atmosphere. At the end of the incubation period, the cells were counted with a Coulter Counter (Coulter Electronics Ltd., Harpenden Herts, U.K.).

[6] = 50% reduction of viable cells in non-infected MT4 cell cultures, 5 days
[7] = read-out: ID50 (1',2'-3H)dUrd incorporation
[8] = read-out: ID50 (5-3H)dCyd incorporation
[9] = read-out: ID50 (methyl-3H)dThd incorporation
[10] = Homo sapiens, CEM and Molt/4F cells, range over both compounds and both cell lines
[11] = Homo sapiens, Raji cells, range over both compounds

Row | Compound | susceptibility to phosphorolysis by dThd phosphorylase (in words) [1] | HIV-induced cyto-pathogenicity CD50 [2, 6] [µM] | IC50 [3, 7] [µM] | IC50 [3, 8] [µM] | IC50 [3, 9] [µM] | stimulatory effect on (5-3H)dCyd incorporation into DNA ([3]; at 200 µM) [fold] | stimulatory effect on (5-3H)dCyd incorporation into DNA ([3]; at 1000 µM) [fold] | Ki/Km ([4]; Km 5.2 to 6.4 µM) | Ki ([4]; substrate (U-14C)dCyd) [µM] | Type of inhibition [4] | IC50 [5, 10] [µM] | IC50 [5, 11] [µM] | Initial velocity of phosphorolysis [1] [nmol/min/unit] | fold higher susceptibility of CEM cells to the cytostatic action than the other cell lines ([5]; CEM versus other cell lines) [fold] | IC50 ([5]; the other cell lines (all but CEM)) [µM] | HIV-induced cyto-pathogenicity CD50 [2] [µM]
1 | CCc1cn([C@H]2C[C@H](N=[N+]=[N-])[C@@H](CO)O2)c(=O)[nH]c1=O [AzddEtUrd, 3′-azido-2′,3′-dideoxy-5-ethyluridine] | no phosphorolytic cleavage whatsoever | 418 | > 1000 | > 1000 | > 1000 |  |  |  |  |  |  |  |  |  |  | 
2 | [N-]=[N+]=N[C@H]1C[C@H](n2ccc(=O)[nH]c2=O)O[C@@H]1CO [AzddUrd, 3′-azido-2′,3′-dideoxyuridine] |  | 244 | 172 | 725 | > 1000 |  |  |  |  |  |  |  |  |  |  | 
3 | Nc1ccn([C@H]2C[C@H](F)[C@@H](CO)O2)c(=O)n1 [FddCyd, 3′-fluoro-2′,3′-dideoxycytidine] | totally resistant | 26 | 27.3 | > 1000 | > 1000 | 1.7 | 2 | 63 | 360 | competitive | 6 to 24 | 23 to 95 |  |  |  | 
4 | CCc1cn([C@H]2C[C@H](F)[C@@H](CO)O2)c(=O)[nH]c1=O [FddEtUrd, 3′-fluoro-2′,3′-dideoxy-5-ethyluridine] | no phosphorolytic cleavage whatsoever | >625 | > 1000 | > 1000 | > 1000 |  |  |  |  |  |  |  |  |  |  | 
5 | O=c1ccn([C@H]2C[C@H](F)[C@@H](CO)O2)c(=O)[nH]1 [FddUrd, 3′-fluoro-2′,3′-dideoxyuridine] |  | 16 | 16 | > 1000 | > 1000 |  |  |  |  |  |  |  | 0.018 | 70 | > 1000 | 
6 | Nc1ccn([C@H]2CC[C@@H](CO)O2)c(=O)n1 [ddCyd, 2′,3′-Dideoxycytidine] | totally resistant | 40 | 32 | > 1000 | 753 | 1.7 | 2 |  |  | competitive | 6 to 24 | 23 to 95 |  |  |  | 
7 | CCc1cn([C@H]2CC[C@@H](CO)O2)c(=O)[nH]c1=O [ddEtUrd, 2′,3′-Dideoxy-5-ethyluridine] | no phosphorolytic cleavage whatsoever | >625 | > 1000 | > 1000 | > 1000 |  |  |  |  |  |  |  |  |  |  | 
8 | O=c1ccn([C@H]2CC[C@@H](CO)O2)c(=O)[nH]1 [ddUrd, 2′-3′-dideoxyuridine] |  |  | > 1000 | > 1000 | > 1000 |  |  |  |  |  |  |  | 0.270 |  |  | >625
